From paper PMC9604483, “Crystal Structure of CYP3A4 Complexed with Fluorol Identifies the Substrate Access Channel as a High-Affinity Ligand Binding Site” (International Journal of Molecular Sciences, 2022)

Tests used:
Assay type in all cases: binding
[1] = target: T1, T224A CYP3A4 (Homo sapiens, UniProt P08684, T224A); experiment: Spectral (absorbance) equilibrium titrations of fluorol with CYP3A4
T1 construct: made in house
Protocol: (§1) Because fluorol strongly absorbs in the Soret region (Figure 3A), we conducted reverse rather than direct titrations by adding small amounts of CYP3A4 to the experimental cuvette with 3 μM fluorol solution and to a buffer-containing reference cuvette. Based on the difference absorbance spectra, two spectral phases were distinguished. During the first phase, when [CYP3A4] < 0.5 μM and [fluorol]:[CYP3A4] […], spectral perturbations were detected only in the Soret band (red spectra in Figure 3B,C). The lack of changes in the 380–390 nm region implies that the heme remained in a low-spin state. At [CYP3A4] > 0.5, a decrease in the Soret absorption was accompanied by the appearance of a 385 nm peak, indicating a low-to-high spin transition in the heme. For WT CYP3A4, the first spectral phase was more pronounced, with a ~3-fold larger decrease in the Soret band, whereas the 385 nm peak formed during the second phase was ~20% higher compared to that in the T224A mutant. The difference in the total absorbance change is better seen in Figure 3D, where titration plots for WT and T224A CYP3A4 are compared. The best fittings to the binding isotherms were obtained with a two-binding-site model.
(§2) Spectral Titrations—Equilibrium ligand binding to CYP3A4 was monitored using a Cary 300 spectrophotometer at 23 °C in 50 mM phosphate, pH 7.4, containing 0.6 mg/mL β-cyclodextrin (Santa Cruz Biotechnology, Dallas, TX, USA), using a 10 mm light path cuvette. Ten millimolar stock of fluorol (2-butyl-6-(butylamino)-1H-benzo[de]isoquinoline-1,3(2H)-dione; Exciton, Dayton, OH, USA) dissolved in methanol (ε440 nm = 14.0 mM^−1·cm^−1) was diluted with DMSO to prepare 1–3 mM working solutions. During spectral titrations, small aliquots of WT or T224A CYP3A4 were added to the experimental cuvette with a 3 μM fluorol solution (made from 1 mM stock in DMSO) and to the reference cuvette that contained buffer and the same amount of solvent. Difference absorbance spectra were recorded 5–10 min after fluorol addition, when no further spectral perturbations could be detected. The observed absorbance changes (peak-to-trough difference) were plotted vs. […] and fitted using a nonlinear regression analysis to derive dissociation constants.

[2] = target: T2, WT CYP3A4 (Homo sapiens, UniProt P08684); experiment: as above
T2 construct: made in house
Protocol: as §1, §2

[3] = target: T1, T224A CYP3A4; experiment: Equilibrium fluorescence titrations of fluorol with CYP3A4; conditions: for Kd: read-out: Kd, fluorometric
Text: (§3) Equilibrium fluorescence titrations were used as an alternative approach for Kd determination. One advantage of fluorol is a large Stokes shift (difference between the absorption and emission maxima; Figure S1B) and sensitivity to environment, as emission becomes more intense and blue-shifted when polarity of the medium decreases (Figure S1C). Moreover, spectral overlap between the emission band of fluorol and Q-bands of CYP3A4 enables fluorescence resonance energy transfer (FRET) to the heme. This process dominates during complex formation with CYP3A4, because emission is decreased rather than enhanced when fluorol transfers from an aqueous media to a more hydrophobic protein environment. One complication that we encountered during fluorescence measurements was a nonspecific decrease in emission, presumably due to adhesion of fluorol to plastic pipette tips. To overcome this problem, before each titration, small amounts of buffer were added to fluorol solution in 1–2 μL increments (8–10 additions; <2% of volume change) and mixed using the same low-retention pipette tip. When no further changes in fluorescence intensity were observed, the same tip was used for addition and mixing of CYP3A4 aliquots (Figure 4A). […] This means that the low-affinity site in T224A CYP3A4 is less solvated and/or lies closer to the heme.
(§4) As a result, in GS8-bound CYP3A4, fluorol might still be able to bind to the channel, albeit in a different orientation (Figure S2C). […] Thus, regardless of what ligand is bound, only the low-affinity site was available for fluorol in both WT and T224A CYP3A4.
(§5) Fluorescence measurements—Equilibrium fluorescence titrations were conducted on a Hitachi F-7000 fluorescence spectrophotometer at 23 °C in 50 mM phosphate buffer, pH 7.4, containing 0.6 mg/mL β-cyclodextrin. Fluorol solution (1 μM) was first titrated with small amounts of buffer using a low-retention plastic pipette tip until no further changes in fluorescence were detected (λex = 440 nm); then, the same tip was used for CYP3A4 additions (6 μM final concentration). […] CYP3A4-dependent changes in fluorescence intensity were plotted vs. CYP3A4 concentration, and Kd values were derived from nonlinear regression fittings.

[4] = target: T2, WT CYP3A4; experiment: as above
Text: as §3, §4, §5

T2 sequence (P08684 with tags, fused parts or gaps): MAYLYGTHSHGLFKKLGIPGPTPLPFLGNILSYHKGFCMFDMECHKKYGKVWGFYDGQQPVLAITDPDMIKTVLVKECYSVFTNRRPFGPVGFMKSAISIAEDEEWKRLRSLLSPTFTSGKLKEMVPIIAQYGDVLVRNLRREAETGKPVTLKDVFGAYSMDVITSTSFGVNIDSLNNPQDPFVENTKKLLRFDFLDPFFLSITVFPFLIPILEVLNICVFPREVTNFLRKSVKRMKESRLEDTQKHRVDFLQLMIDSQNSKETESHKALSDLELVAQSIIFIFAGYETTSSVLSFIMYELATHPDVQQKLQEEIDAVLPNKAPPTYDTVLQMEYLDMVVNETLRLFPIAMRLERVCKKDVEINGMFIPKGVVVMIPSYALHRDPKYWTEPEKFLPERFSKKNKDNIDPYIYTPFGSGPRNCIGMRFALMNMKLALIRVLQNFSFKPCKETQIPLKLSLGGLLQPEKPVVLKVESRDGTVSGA
T1 sequence (P08684 with tags, fused parts or gaps T224A): as the sequence (P08684 with tags, fused parts or gaps) above, with T204A counted along it

Question: For `CCCCNc1ccc2c3c(cccc13)C(=O)N(CCCC)C2=O` [fluorol, 2-butyl-6-(butylamino)-1H-benzo[de]isoquinoline-1,3(2H)-dione], which “Decrease in affinities when the hydroxyl group in Thr224 is eliminated” value ([1]; T224A vs WT, spectrophotometric Kd) is on record?
Answer: 25–37%

Question: What about the Kd at 3 μM ([1]; human, ligand-free T224A mutant CYP3A4 protein in buffer, pH 7.4, ligand-free T224A CYP3A4, read-out: Kd, spectrophotometric, low-affinity site) of the same compound?
Answer: 6.6 ± 0.8 µM

Question: And the “Percentage of the absorbance change due to binding of fluorol to the high-affinity site” value ([1]; ligand-free T224A CYP3A4)?
Answer: 14%

Question: And the Kd ([1]; ligand-free T224A CYP3A4, read-out: Kd, spectrophotometric, high-affinity site)?
Answer: 670 ± 120 nM

Question: What about the “Difference in affinity between the two independent fluorol binding sites” value ([2]; WT and T224A CYP3A4, spectrophotometric Kd) of the same compound?
Answer: 8–10 fold

Question: And the “Decrease in the Soret band during first spectral phase, WT relative to T224A” value ([2]; [CYP3A4] < 0.5 μM)?
Answer: ~ 3 fold

Question: What about the “Height of 385 nm peak formed during second phase, WT compared to T224A” value ([2]; higher in WT) of the same compound?
Answer: ~ 20%

Question: What about the Kd at 3 μM ([2]; human, ligand-free WT CYP3A4 protein in buffer, pH 7.4, read-out: Kd, spectrophotometric, low-affinity site) of the same compound?
Answer: 4.2 ± 0.5 µM

Question: What about the “Percentage of the absorbance change due to binding of fluorol to the high-affinity site” value ([2]; ligand-free WT CYP3A4) of the same compound?
Answer: 28%

Question: And the Kd ([2]; ligand-free WT CYP3A4, 3 μM fluorol, 23 °C, 50 mM phosphate pH 7.4, 0.6 mg/mL β-cyclodextrin, read-out: Kd, spectrophotometric, high-affinity site)?
Answer: 500 ± 40 nM

Question: And the “Ligand-dependent decrease in emission change” value ([3]; GS8-bound T224A CYP3A4)?
Answer: 7%

Question: What about the Kd ([3]; T224A CYP3A4 in presence of 0.4 μM GS8, one-site model) of the same compound?
Answer: 1600 ± 200 nM

Question: And the Kd ([3]; T224A CYP3A4 in presence of 0.4 μM RIT, one-site model)?
Answer: 3500 ± 300 nM

Question: And the Kd ([3]; T224A CYP3A4 in presence of 20 μM PRG, one-site model)?
Answer: 1800 ± 200 nM

Question: What about the “Ligand-dependent increase in emission change” value ([3]; T224A CYP3A4 in the presence of progesterone) of the same compound?
Answer: 20%

Question: What about the “Fluorescence decay in T224A relative to WT” value ([3]; larger in T224A, equilibrium titration) of the same compound?
Answer: ~ 20%

Question: And the Kd ([3]; ligand-free T224A CYP3A4, only a low-affinity site detected)?
Answer: 2000 ± 300 nM

Question: And the “Ligand-dependent decrease in emission change” value ([3]; ritonavir-bound T224A CYP3A4)?
Answer: 20%

Question: And the “Reduction of emission quenching” value ([4]; GS8-bound WT CYP3A4 vs ligand-free)?
Answer: 10%

Question: What about the Kd ([4]; WT CYP3A4 in presence of 0.4 μM GS8, one-site model, read-out: Kd, fluorometric) of the same compound?
Answer: 2100 ± 300 nM

Question: What about the Kd ([4]; WT CYP3A4 in presence of 0.4 μM RIT, one-site model, read-out: Kd, fluorometric) of the same compound?
Answer: 4800 ± 600 nM

Question: And the Kd ([4]; WT CYP3A4 in presence of 20 μM PRG, one-site model, read-out: Kd, fluorometric)?
Answer: 2400 ± 200 nM

Question: What about the Kd at 1 μM ([4]; human, ligand-free WT CYP3A4 protein in buffer, pH 7.4, ligand-free WT CYP3A4, read-out: Kd, fluorometric, low-affinity site) of the same compound?
Answer: 2400 ± 400 nM

Question: What about the “Percentage of the fluorescence change due to binding of fluorol to the high-affinity site” value ([4]; ligand-free WT CYP3A4) of the same compound?
Answer: 25%

Question: And the Kd ([4]; ligand-free WT CYP3A4, 1 μM fluorol, 23 °C, pH 7.4, read-out: Kd, fluorometric, high-affinity site)?
Answer: 150 ± 30 nM

Question: What about the “Reduction of emission quenching” value ([4]; ritonavir-bound WT CYP3A4 vs ligand-free) of the same compound?
Answer: 30%
